Laboratory results published in patent US20120040977A1, “INHIBITORS OF HCV NS5A” (PRESIDIO PHARMACEUTICALS, INC., priority 2009, published 2012).

System: HCV genotype 1b replicon
Assay: HCV replicon assay (HCV 1b_Huh-Luc/Neo-ET cell line, luciferase readout)
Type: cell-based
Details: Hepatitis C virus; bicistronic genotype 1b replicon in Huh 7 cells, 72 h incubation, luciferase enzyme activity; read-out: Inhibition of HCV genotype 1b
How it was run: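 Huh 7 cells carrying a bicistronic genotype 1b luciferase replicon treated with compound in triplicate for 72 h. Luciferase activity expressed as percent of untreated control; EC50 from four-parameter curve fit, determined several times.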

SMILES	EC50 [nM]
COC(=O)N[C@H](C(=O)N1CCC[C@H]1CNC(=O)c1ccc(-c2ccc(-c3cnc([C@@H]4CCCN4C(=O)[C@@H](NC(=O)OC)C(C)C)[nH]3)cc2)cc1)C(C)C [Compound 99]	< 1
CC(C)[C@@H](NC(=O)OC(C)(C)C)C(=O)N1CCOC[C@H]1C(=O)Nc1ccc(-c2ccc(-c3cnc([C@@H]4COCCN4C(=O)[C@H](NC(=O)OC(C)(C)C)C(C)C)[nH]3)cc2)cc1 [Compound 18]	10 to 999
COC(=O)N[C@@H](C)C(=O)N1CCC[C@H]1C(=O)NCc1ccc(-c2ccc(-c3cnc([C@@H]4CCCN4C(=O)[C@H](C)NC(=O)OC)[nH]3)cc2)cc1 [Compound 104]	10 to 999
C[C@@H](NC(=O)C1CC1)C(=O)N1CCOC[C@H]1C(=O)Nc1ccc(-c2ccc(-c3cnc([C@@H]4CCCN4C(=O)[C@@H](C)NC(=O)C4CC4)[nH]3)cc2)cc1 [Compound 22]	1 to 9.9
C[C@@H](NC(=O)[C@@H]1CCCN1C(=O)[C@H](NC(=O)N1CCOCC1)c1ccccc1)c1ccc(-c2ccc(-c3cnc([C@@H]4CCCN4C(=O)[C@H](NC(=O)N4CCOCC4)c4ccccc4)[nH]3)cc2)cc1 [Compound 41]	1 to 9.9
COC(=O)N[C@@H](C)C(=O)N1CCC[C@H]1CNC(=O)c1ccc(-c2ccc(-c3cnc([C@@H]4CCCN4C(=O)[C@H](C)NC(=O)OC)[nH]3)cc2)cc1 [Compound 98]	1 to 9.9
COC(=O)N[C@H](C(=O)N1CCC[C@H]1CNC(=O)c1ccc(-c2ccc3nc([C@@H]4CCCN4C(=O)[C@@H](NC(=O)OC)C(C)C)[nH]c3c2)cn1)C(C)C [Compound 115]	10 to 999
C[C@@H](NC(=O)C1CC1)C(=O)N1CCC[C@H]1C(=O)Nc1ccc(-c2ccc(-c3cnc([C@@H]4COCCN4C(=O)[C@@H](C)NC(=O)C4CC4)[nH]3)cc2)cc1 [Compound 19]	1 to 9.9
C[C@@H](NC(=O)OC(C)(C)C)C(=O)N1CCC[C@H]1C(=O)Nc1ccc(-c2ccc(-c3cnc([C@@H]4COCCN4C(=O)[C@@H](C)NC(=O)OC(C)(C)C)[nH]3)cc2)cc1 [Compound 9]	10 to 999
COC(=O)N[C@@H](C)C(=O)N1CCC[C@H]1C(=O)Nc1ccc(-c2ccc(-c3cnc([C@@H]4CCCN4C(=O)[C@H](C)NC(=O)OC)[nH]3)cc2)cc1 [Compound 108]	10 to 999
COC(=O)N[C@@H](C(=O)N1CCC[C@H]1c1ncc(-c2ccc(-c3ccc(C(=O)NC[C@@H]4CCCN4C(=O)[C@@H](c4ccccc4)N(C)C)cc3)cc2)[nH]1)c1ccccc1 [Compound 65]	< 1
COC(=O)N[C@H](C(=O)N1CCC[C@H]1C(=O)Nc1ccc(-c2ccc(-c3cnc([C@@H]4CCCN4C(=O)[C@@H](NC(=O)OC)C(C)C)[nH]3)cc2)cc1)C(C)C [Compound 109]	10 to 999
COC(=O)N[C@H](C(=O)N1CCC[C@H]1C(=O)Nc1ccc(-c2ccc3c(ccc4nc([C@@H]5CCCN5C(=O)[C@@H](NC(=O)OC)C(C)C)[nH]c43)c2)cc1)C(C)C [Compound 114]	< 1
COC(=O)N[C@@H](C(=O)N1CCC[C@H]1CNC(=O)c1ccc(-c2ccc(-c3cnc([C@@H]4CCCN4C(=O)[C@H](NC(=O)OC)c4ccccc4)[nH]3)cn2)cc1)c1ccccc1 [Compound 79]	< 1
O=C(N[C@@H](C(=O)N1CCC[C@H]1C(=O)Nc1ccc(-c2ccc(-c3cnc([C@@H]4COCCN4C(=O)[C@H](NC(=O)C4CC4)c4ccccc4)[nH]3)cc2)cc1)c1ccccc1)C1CC1 [Compound 11]	< 1
COC(=O)N[C@@H](C(=O)N1CCC[C@H]1C(=O)NCc1ccc(-c2ccc(-c3cnc([C@@H]4CCCN4C(=O)[C@H](NC(=O)OC)c4ccccc4)[nH]3)cn2)cc1)c1ccccc1 [Compound 118]	< 1
CC(C)(C)OC(=O)N[C@@H](C(=O)N1CCC[C@H]1C(=O)Nc1ccc(-c2ccc(-c3cnc([C@@H]4CCCN4C(=O)[C@H](NC(=O)OC(C)(C)C)c4ccccc4)[nH]3)cc2)cc1)c1ccccc1 [Compound 26]	< 1

SMILES	EC50 [nM]
[2H]C([2H])([2H])C([2H])(C([2H])([2H])[2H])C([2H])(NC(=O)OC)C(=O)N1CCC[C@H]1c1ncc(-c2ccc(-c3ccc(CNC(=O)[C@@H]4CCCN4C(=O)[C@@]([2H])(NC(=O)OC)C([2H])(C([2H])([2H])[2H])C([2H])([2H])[2H])cc3)cc2)[nH]1 (stereo partly drawn) [Compound 82]	1 to 9.9
CC(C)(C)OC(=O)N1CCC[C@H]1C(=O)Nc1ccc(-c2ccc(-c3cnc([C@@H]4COCCN4C(=O)OC(C)(C)C)[nH]3)cc2)cc1 [Compound 5]	> 1000
O=C(Nc1ccc(-c2ccc(-c3cnc([C@@H]4COCCN4C(=O)[C@H](NC(=O)N4CCOCC4)c4ccccc4)[nH]3)cc2)cc1)[C@@H]1COCCN1C(=O)[C@H](NC(=O)N1CCOCC1)c1ccccc1 [Compound 2]	1 to 9.9
O=C(N[C@@H](C(=O)N1CCC[C@H]1c1ncc(-c2ccc(Sc3ccc(-c4cnc([C@@H]5CCCN5C(=O)[C@H](NC(=O)C5CC5)c5ccccc5)[nH]4)cc3)cc2)[nH]1)c1ccccc1)C1CC1 [Compound 50]	< 1
[2H]C([2H])([2H])C([2H])(C([2H])([2H])[2H])C([2H])(NC(=O)OC)C(=O)N1CCC[C@H]1c1ncc(-c2ccc(-c3ccc(NC(=O)[C@@H]4CCCN4C(=O)[C@@]([2H])(NC(=O)OC)C([2H])(C([2H])([2H])[2H])C([2H])([2H])[2H])cc3)cc2)[nH]1 (stereo partly drawn) [Compound 77]	< 1
COC(=O)N[C@H](C(=O)N1CCC[C@H]1CNC(=O)c1ccc(-c2ccc(-c3cnc([C@@H]4CCCN4C(=O)[C@@H](NC(=O)OC)C(C)C)[nH]3)cc2)cn1)C(C)C [Compound 83]	1 to 9.9
COC(=O)N[C@@H](C)C(=O)N1CCC[C@H]1C(=O)N[C@@H](C)c1ccc(-c2ccc(-c3cnc([C@@H]4CCCN4C(=O)[C@H](C)NC(=O)OC)[nH]3)cc2)cc1 [Compound 94]	1 to 9.9
C[C@H](NC(=O)[C@@H]1CCCN1C(=O)[C@H](NC(=O)N1CCN(C)CC1)c1ccccc1)c1ccc(-c2ccc(-c3cnc([C@@H]4CCCN4C(=O)[C@H](NC(=O)N4CCN(C)CC4)c4ccccc4)[nH]3)cc2)cc1 [Compound 36]	1 to 9.9
COC(=O)N[C@H](C(=O)N1CCC[C@H]1C(=O)NCc1ccc(-c2ccc(-c3cnc([C@@H]4CCCN4C(=O)[C@@H](NC(=O)OC)[C@@H](C)OC)[nH]3)cc2)cc1)[C@@H](C)OC [Compound 106]	10 to 999
COC(=O)N[C@@H](C(=O)N1CCC[C@H]1c1ncc(-c2ccc(-c3ccc(C(=O)NC[C@@H]4CCCN4C(=O)[C@H](NC(=O)N4CCOCC4)c4ccccc4)cc3)cc2)[nH]1)c1ccccc1 [Compound 67]	< 1
COC(=O)N[C@H](C(=O)N1CCC[C@H]1C(=O)Nc1ccc(-c2ccc(-c3cnc([C@@H]4CCCN4C(=O)[C@@H](NC(=O)OC)C4CCOCC4)[nH]3)cc2)cc1)C1CCOCC1 [Compound 110]	1 to 9.9
C[C@@H](NC(=O)C1CC1)C(=O)N1CCOC[C@H]1C(=O)Nc1ccc(-c2ccc(-c3cnc([C@@H]4COCCN4C(=O)[C@@H](C)NC(=O)C4CC4)[nH]3)cc2)cc1 [Compound 24]	10 to 999
C[C@@H](NC(=O)[C@@H]1CCCN1C(=O)[C@H](NC(=O)C1CC1)c1ccccc1)c1ccc(-c2ccc(-c3cnc([C@@H]4CCCN4C(=O)[C@H](NC(=O)C4CC4)c4ccccc4)[nH]3)cc2)cc1 [Compound 40]	< 1
O=C(N[C@@H](C(=O)N1CCOC[C@H]1C(=O)Nc1ccc(-c2ccc(-c3cnc([C@@H]4CCCN4C(=O)[C@H](NC(=O)C4CC4)c4ccccc4)[nH]3)cc2)cc1)c1ccccc1)C1CC1 [Compound 3]	< 1
COC(=O)N[C@H](C(=O)N1CCC[C@H]1C(=O)NCc1ccc(-c2ccc3nc([C@@H]4CCCN4C(=O)[C@@H](NC(=O)OC)C(C)C)[nH]c3c2)cn1)C(C)C [Compound 121]	10 to 999
C=CC[C@H](NC(=O)OC)C(=O)N1CCC[C@H]1C(=O)Nc1ccc(-c2ccc(-c3cnc([C@@H]4CCCN4C(=O)[C@H](CC=C)NC(=O)OC)[nH]3)cc2)cc1 [Compound 75]	1 to 9.9
